Test results taken from patent publication US8058242B2, “Chimeric proteins with natriuretic activity” (The University of Queensland, priority 2004, dated 2011).
Where “and” joins values, the source holds several entries; their conditions need not be identical. Equal values may be shown once. Positions of bridges follow the written chain, without caps; N, C: chain ends. Residues, ends and D or L forms follow the SMILES beside them.

Legend:
[1] = tested on: CHF-induced sheep; experiment: Ovine model of tachycardia induced congestive heart failure (Example 9); format: in vivo
From the text: All procedures conform with the Guide for the Care and Use of Laboratory Animals published by the US National Institutes of Health (NIH Publication No. 82-23, revised 1996). Six adult crossbred sheep (weight, 50 to 55 kg) were implanted with pacemakers under isoflurane anesthesia and oxygen. A bipolar screw fixation ventricular pacing lead was placed transvenously under fluoroscopic guidance in the apex of the right ventricle. The proximal end of the lead was connected to pacemakers reprogrammed for high-rate pacing (Sigma, Medtronic) that were positioned subcutaneously in the lateral aspect of the neck. Oxytetracycline (5 mL), an antibiotic, and flunixin meglumine (1 mL), an analgesic, were administered subcutaneously prophylactically on the day of surgery. After 3 days of recovery, right ventricular pacing was initiated at 180 bpm and continued for 4 weeks to induce CHF (NYHC III). Animals were anesthetized and an echocardiographic examination and a conductance catheter evaluation were performed.
Animals were randomized to either TNPc or ANP on two consecutive days, according to the schedule in Table 11B. Studies were conducted over a period of 4 days with two study groups.
On the day of the first experiment, after a control period in which baseline measurements were made, drug infusion via a fore-leg vein using new calibrated Terumo syringe pumps was commenced (TNPc or ANP randomized to days 1 or 2) at 2, 4 and 6 pmol/min/kg, each for 30 min. Echocardiographic and conductance catheter evaluations were performed at 30 min after each drug level. On the second day, the experiment was repeated with the other drug (either TNPc or […] according to day 1 treatment) at 2, 4 and 6 pmol/min, each for 30 min and echocardiographic and conductance catheter evaluations were performed at 30 min after each drug level. The animal was euthanased at the conclusion of the experiment. Stock solutions of each peptide were made up under sterile conditions using sterile saline, were protected from light with aluminium foil and kept refrigerated.
Left ventricular (LV) ejection fraction was monitored by echocardiography and the conductance catheter was used to measure LV dP/i, LV end diastolic pressure, LV ESPVR, heart rate and mean arterial pressure (MAP). Values were expressed as mean +/−SEM and were analyzed by Students t-test. A value of p<0.05 was considered significant.

[2] = tested on: denuded aortic rings, GC A receptor; experiment: Relaxation of noradrenaline constricted endothelium-denuded aortic rings (Example 11); parameters: species or system rat; conditions: GC-A mediated
In short: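 Endothelium-denuded thoracic aortic rings (5 mm) from male Sprague Dawley rats were held at 10 g tension in carbogenated physiological salt solution at 37 °C. Denudation was confirmed by under 10% ACh (10 μM) relaxation after phenylephrine (0.3 μM). Rings constricted with noradrenaline, scaled to 40 mM KCl contraction, were relaxed with increasing peptide doses, with at least 3 rings per peptide.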

[3] = tested on: normal rats; experiment: Hemodynamic parameters in normal anesthetized rats (Example 10)
[4] = tested on: rats with chronic heart failure; experiment: Rat model of chronic heart failure, left coronary artery occlusion, anesthetized (Example 10); conditions: HF rats

CC[C@H](C)[C@H](NC(=O)[C@H](CCCCN)NC(=O)[C@H](CO)NC(=O)[C@H](CC(=O)O)NC(=O)[C@@H](N)CO)C(=O)NCC(=O)N[C@@H](CC(N)=O)C(=O)NCC(=O)N[C@H]1CSSC[C@@H](C(=O)N[C@@H](CC(N)=O)C(=O)N[C@@H](CCCNC(=N)N)C(=O)N[C@H](C(=O)N[C@@H](CCSC)C(=O)N[C@@H](CCC(N)=O)C(=O)N[C@@H](CC(N)=O)C(=O)N2CCC[C@H]2C(=O)N2CCC[C@H]2C(=O)N[C@@H](CCCCN)C(=O)N[C@@H](CCCCN)C(=O)N[C@@H](Cc2ccccc2)C(=O)N[C@@H](CO)C(=O)NCC(=O)N[C@@H](CCC(=O)O)C(=O)O)[C@@H](C)CC)NC(=O)CNC(=O)[C@H](CC(C)C)NC(=O)CNC(=O)[C@H](CO)NC(=O)[C@H](C(C)C)NC(=O)[C@H](CO)NC(=O)CNC(=O)[C@H]([C@@H](C)CC)NC(=O)[C@H](CCCNC(=N)N)NC(=O)[C@H](CC(=O)O)NC(=O)[C@H](CC(C)C)NC(=O)[C@@H]2CCCN2C(=O)[C@H](Cc2ccccc2)NC(=O)CNC(=O)[C@H](Cc2ccccc2)NC1=O [TNPc] (H-SDSKIGNGCFGFPLDRIGSVSGLGCNRIMQNPPKKFSGE-OH; disulfide 9-25)
reduction of −dp/dt ([1]; TNPc infusion): 27%
+dP/dt ([1]; high dose infusion): 1078.00
EDP ([1]; high dose infusion): 4.17
ESPR slope ([1]; high dose infusion): 3.78
ejection fraction ([1]; high dose infusion): 61.83
heart rate ([1]; high dose infusion): 100.67
−dP/dt ([1]; high dose infusion): 1298.00
+dP/dt ([1]; low dose infusion): 1079.67
EDP ([1]; low dose infusion): 5.83
ESPR slope ([1]; low dose infusion): 2.72
ejection fraction ([1]; low dose infusion): 48.17
heart rate ([1]; low dose infusion): 98.00
−dP/dt ([1]; low dose infusion): 1469.50
+dP/dt ([1]; recovery (30 min)): 1064.83
EDP ([1]; recovery (30 min)): 7.67
ESPR slope ([1]; recovery (30 min)): 3.35
ejection fraction ([1]; recovery (30 min)): 42.33
heart rate ([1]; recovery (30 min)): 98.00
−dP/dt ([1]; recovery (30 min)): 1201.50
Mean relaxation SEM of denuded aortic rings expressed as % of KCl response [2]: 55.0 ± 10.7%
Blood Flow, mean change from control ([3]; 50 pmol/kg/min, 30 min): -5.2 mL/min
Conductance, mean change from control ([3]; 50 pmol/kg/min, 30 min): −1.1 ml/min/mmHg
Diastolic LVP, mean change from control ([3]; 50 pmol/kg/min, 30 min): −1.4 mmHg
HCT, mean change from control ([3]; 50 pmol/kg/min, 30 min): −1.7%
HR, mean change from control ([3]; 50 pmol/kg/min, 30 min): −13.5 BPM
Mean BP, mean change from control ([3]; 50 pmol/kg/min, 30 min): −21.0 mmHg
Urine Flow, mean change from control ([3]; 50 pmol/kg/min, 30 min): 0.4 mL/h
Blood Flow, mean change from control ([3]; 100 pmol/kg/min, 30 min): -7.3 mL/min
Conductance, mean change from control ([3]; 100 pmol/kg/min, 30 min): −2.1 ml/min/mmHg
Diastolic LVP, mean change from control ([3]; 100 pmol/kg/min, 30 min): −0.9 mmHg
HCT, mean change from control ([3]; 100 pmol/kg/min, 30 min): −3.5%
HR, mean change from control ([3]; 100 pmol/kg/min, 30 min): −23.6 BPM
Mean BP, mean change from control ([3]; 100 pmol/kg/min, 30 min): −25.9 mmHg
Urine Flow, mean change from control ([3]; 100 pmol/kg/min, 30 min): 0.9 mL/h
Blood Flow, mean change from control ([3]; Recovery): -3.0 mL/min
Conductance, mean change from control ([3]; Recovery): −1.3 ml/min/mmHg
Diastolic LVP, mean change from control ([3]; Recovery): −0.6 mmHg
HCT, mean change from control ([3]; Recovery): 3.1%
HR, mean change from control ([3]; Recovery): −17.9 BPM
Mean BP, mean change from control ([3]; Recovery): −4.1 mmHg
Urine Flow, mean change from control ([3]; Recovery): 0.6 mL/h
Blood Flow, Average drug response SED ([3]; average of the two doses): -6.2 mL/min
Conductance, Average drug response SED ([3]; average of the two doses): −1.6 ml/min/mmHg
Diastolic LVP, Average drug response SED ([3]; average of the two doses): −1.1 mmHg
HCT, Average drug response SED ([3]; average of the two doses): −2.6%
HR, Average drug response SED ([3]; average of the two doses): −18.6 BPM
Mean BP, Average drug response SED ([3]; average of the two doses): −23.5 mmHg
Urine Flow, Average drug response SED ([3]; average of the two doses): 0.7 mL/h
Blood Flow, mean change from control ([4]; 50 pmol/kg/min, 30 min): -1.6 mL/min
Conductance, mean change from control ([4]; 50 pmol/kg/min, 30 min): −0.2 ml/min/mmHg
Diastolic LVP, mean change from control ([4]; 50 pmol/kg/min, 30 min): −0.9 mmHg
HCT, mean change from control ([4]; 50 pmol/kg/min, 30 min): 1.5%
HR, mean change from control ([4]; 50 pmol/kg/min, 30 min): −5.2 bpm
Mean BP, mean change from control ([4]; 50 pmol/kg/min, 30 min): −11.8 mmHg
Urine Flow, mean change from control ([4]; 50 pmol/kg/min, 30 min): 1.0 mL/h
Blood Flow, mean change from control ([4]; 100 pmol/kg/min, 30 min): -2.9 mL/min
Conductance, mean change from control ([4]; 100 pmol/kg/min, 30 min): −0.4 ml/min/mmHg
Diastolic LVP, mean change from control ([4]; 100 pmol/kg/min, 30 min): −1.6 mmHg
HCT, mean change from control ([4]; 100 pmol/kg/min, 30 min): 2.4%
HR, mean change from control ([4]; 100 pmol/kg/min, 30 min): −14.8 bpm
Mean BP, mean change from control ([4]; 100 pmol/kg/min, 30 min): −20.1 mmHg
Urine Flow, mean change from control ([4]; 100 pmol/kg/min, 30 min): 1.7 mL/h
Blood Flow, mean change from control ([4]; Recovery): -0.5 mL/min
Conductance, mean change from control ([4]; Recovery): 0.6 ml/min/mmHg
Diastolic LVP, mean change from control ([4]; Recovery): −1.4 mmHg
HCT, mean change from control ([4]; Recovery): 0.8%
HR, mean change from control ([4]; Recovery): −16.5 bpm
Mean BP, mean change from control ([4]; Recovery): −13.6 mmHg
Urine Flow, mean change from control ([4]; Recovery): 0.9 mL/h
Blood Flow, Average drug response SED ([4]; average of the two doses): -2.2 ± 0.5 mL/min
Conductance, Average drug response SED ([4]; average of the two doses): −0.3 ± 0.3 ml/min/mmHg
Diastolic LVP, Average drug response SED ([4]; average of the two doses): −1.2±0.5 mmHg
HCT, Average drug response SED ([4]; average of the two doses): 1.9 ± 0.5%
HR, Average drug response SED ([4]; average of the two doses): −10.0 ± 6.9 bpm
Mean BP, Average drug response SED ([4]; average of the two doses): −15.9±4.1 mmHg

CC[C@H](C)[C@@H]1NC(=O)[C@H](CCCNC(=N)N)NC(=O)[C@H](CC(=O)O)NC(=O)[C@H](CCSC)NC(=O)[C@H](CCCNC(=N)N)NC(=O)CNC(=O)CNC(=O)[C@H](Cc2ccccc2)NC(=O)[C@@H](NC(=O)[C@H](CO)NC(=O)[C@H](CO)NC(=O)[C@H](CCCNC(=N)N)NC(=O)[C@H](CCCNC(=N)N)NC(=O)[C@H](CC(C)C)NC(=O)[C@@H](N)CO)CSSC[C@@H](C(=O)N[C@@H](CC(N)=O)C(=O)N[C@@H](CO)C(=O)N[C@@H](Cc2ccccc2)C(=O)N[C@@H](CCCNC(=N)N)C(=O)N[C@@H](Cc2ccc(O)cc2)C(=O)O)NC(=O)CNC(=O)[C@H](CC(C)C)NC(=O)CNC(=O)[C@H](CO)NC(=O)[C@H](CCC(N)=O)NC(=O)[C@H](C)NC(=O)CNC1=O [hANP, reference compound]
+dP/dt ([1]; high dose infusion): 1047.00
EDP ([1]; high dose infusion): 3.33
ESPR slope ([1]; high dose infusion): 3.04
ejection fraction ([1]; high dose infusion): 54.50
heart rate ([1]; high dose infusion): 96.33
−dP/dt ([1]; high dose infusion): 1332.17
+dP/dt ([1]; low dose infusion): 949.33
EDP ([1]; low dose infusion): 5.83
ESPR slope ([1]; low dose infusion): 2.85
ejection fraction ([1]; low dose infusion): 42.17
heart rate ([1]; low dose infusion): 91.00
−dP/dt ([1]; low dose infusion): 1336.50
+dP/dt ([1]; recovery (30 min)): 1035.83
EDP ([1]; recovery (30 min)): 6.33
ESPR slope ([1]; recovery (30 min)): 3.44
ejection fraction ([1]; recovery (30 min)): 41.00
heart rate ([1]; recovery (30 min)): 91.00
−dP/dt ([1]; recovery (30 min)): 1232.17
Mean relaxation SEM of denuded aortic rings expressed as % of KCl response [2]: 66% and 66.5 ± 2.3%
